The values that follow come from patent US20050197350A1, “Novel quinoline, tetrahydroquinazoline, and pyrimidine derivatives and methods of treatment related to the use thereof” (TAISHO PHARMACEUTICAL CO., LTD., priority 2003, published 2005).

Where a name gives a salt, the structure may show the parent alone.

For the experiment, the target named is MCH receptor (Homo sapiens, UniProt Q99705). The experiment in a line: High throughput functional screening FLIPR/FDSS6000 (intracellular Ca2+ evoked by MCH). Format: cell-based. As to conditions: FLIPR/FDSS, antagonist activity vs 50 nM MCH; class by percent of control at 10^−7 M or IC50; table after the classification; read-out: class. Put shortly: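 For antagonist testing, compound-treated cells (30 min, 37 °C) were stimulated with 50 nM MCH and intracellular Ca2+ followed by Fluo4 fluorescence on FLIPR/FDSS6000. Receptor was a constitutively active, non-endogenous MCH receptor; dye loading 4 μM Fluo4-AM, 1 h, 37 °C.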

With `Cc1cc(N(C)C)nc(N[C@H]2CC[C@@H](NC(=O)c3ccc(Cl)c(F)c3)CC2)n1` [Example 3383, 4-Chloro-N-[cis-4-(4-dimethylamino6-methyl-pyrimidin-2-ylamino)-cyclohexyl]3-fluoro-benzamide hydrochloride], the IC50 was less than 50 nM.

For `Cc1cc(N(C)C)nc(N[C@H]2CC[C@@H](NC(=O)c3cc(F)cc(Cl)c3)CC2)n1` [Example 3384, 3-Chloro-N-[cis-4-(4-dimethylamino6-methyl-pyrimidin-2-ylamino)-cyclohexyl]5-fluoro-benzamide hydrochloride], the IC50 is less than 50 nM.

For `Cc1cc(N(C)C)nc(N[C@H]2CC[C@@H](NC(=O)c3cc(F)c(F)c(F)c3)CC2)n1` [Example 3385, N-[cis-4-(4-Dimethylamino-6-methyl-pyrimidin-2-ylamino)-cyclohexyl]-3,4,5-trifluoro-benzamide hydrochloride], the IC50 is less than 50 nM.

Take `CNc1nc(N[C@H]2CC[C@@H](NC(=O)c3ccc(F)c(Cl)c3)CC2)ncc1C` [Example 3386, 3-Chloro-4-fluoro-N-[cis-4-(5-methyl-4-methylamino-pyrimidin-2-ylamino)-cyclohexyl]-benzamide hydrochloride]: the IC50 is less than 50 nM.

Turning to `Cc1cnc(N[C@H]2CC[C@@H](NC(=O)c3ccc(Cl)c(F)c3)CC2)nc1N(C)C` [Example 3387, 4-Chloro-N-[cis-4-(4-dimethylamino5-methyl-pyrimidin-2-ylamino)-cyclohexyl]3-fluoro-benzamide hydrochloride], the IC50 was less than 50 nM.

With `Cc1cnc(N[C@H]2CC[C@@H](NC(=O)c3cc(F)cc(Cl)c3)CC2)nc1N(C)C` [Example 3388, 3-Chloro-N-[cis-4-(4-dimethylamino5-methyl-pyrimidin-2-ylamino)-cyclohexyl]5-fluoro-benzamide hydrochloride], the IC50 is less than 50 nM.

With `Cc1cnc(N[C@H]2CC[C@@H](NC(=O)c3cc(F)c(F)c(F)c3)CC2)nc1N(C)C` [Example 3389, N-[cis-4-(4-Dimethylamino-5-methyl-pyrimidin-2-ylamino)-cyclohexyl]-3,4,5-trifluoro-benzamide hydrochloride], the IC50 was less than 50 nM.

Turning to `Cc1cnc(N[C@H]2CC[C@@H](NC(=O)c3cc(F)cc(F)c3)CC2)nc1N(C)C` [Example 3390, N-[cis-4-(4-Dimethylamino-5-methyl-pyrimidin-2-ylamino)-cyclohexyl]-3,5-difluoro-benzamide hydrochloride], the IC50 is less than 50 nM.

In the case of `Cc1cnc(N[C@H]2CC[C@@H](NC(=O)Cc3ccc(F)c(F)c3)CC2)nc1N(C)C` [Example 3391, 2-(3,4-Difluoro-phenyl)-N-[cis-4-(4-dimethylamino-5-methyl-pyrimidin-2-ylamino)-cyclohexyl]-acetamide hydrochloride], the IC50 is less than 50 nM.

On to `Cc1cnc(N[C@H]2CC[C@@H](NC(=O)c3ccc(F)c(Cl)c3)CC2)nc1N` [Example 3392, N-[cis-4-(4-Amino-5-methyl-pyrimidin-2-ylamino)-cyclohexyl]-3-chloro-4-fluoro-benzamide hydrochloride], for which the IC50 was greater than 200 nM.

For the compound `CN(C)c1ccnc(N[C@H]2CC[C@@H](NC(=O)COc3ccc(Cl)c(Cl)c3)CC2)n1` [Example 3393, 2-(3,4-Dichloro-phenoxy)-N-[cis-4-(4-dimethylamino-pyrimidin-2-ylamino)-cyclohexyl]-acetamide hydrochloride], the IC50 is less than 50 nM.

`COc1cccc(OCC(=O)N[C@H]2CC[C@@H](Nc3nccc(N(C)C)n3)CC2)c1` [Example 3394, N-[cis-4-(4-Dimethylamino-pyrimidin-2-ylamino)-cyclohexyl]-2-(3-methoxy-phenoxy)-acetamide hydrochloride]: the IC50 is less than 50 nM.

Turning to `Cc1cc(N[C@H]2CC[C@@H](NC(=O)c3cncc(Cl)c3)CC2)nc2ccccc12` [Example 3396, 5-Chloro-N-[cis-4-(4-methyl-quinolin-2-ylamino)-cyclohexyl]-nicotinamide], the IC50 was less than 50 nM.

In the case of `Cc1cc(N[C@H]2CC[C@@H](NC(=O)c3cncc(F)c3)CC2)nc2ccccc12` [Example 3397, 5-Fluoro-N-[cis-4-(4-methyl-quinolin-2-ylamino)-cyclohexyl]-nicotinamide], the IC50 is less than 50 nM.
